From US7910579B2, “Benzoxazole derivatives” (Tohoku University, priority 2006, dated 2011)
Read-outs that look alike come from different tables or passages of the source.

Columns and labels:
[1] = target: T1, amyloid β protein in the brain section of an Alzheimer disease patient (Homo sapiens, UniProt P05067); assay: Staining test on a brain section of an Alzheimer disease patient: amyloid β protein; format: binding
T1 construct: from tissue; host or cells: paraffin-embedded temporal lobe and hippocampus of Alzheimer disease patients
Source text: (§1) (1) Brain specimens at the temporal lobe and the hippocampus of patients to which a definitive diagnosis of Alzheimer disease had been given, and those of normal senile persons were used. The specimens were given by our coworker, Fukushimura Hospital, Longevity Medicine Institute, and we were given their consent of use of the specimens for our study purpose by the bereaved of the patients (Fukushimura Hospital Ethical Review Board Approval No. 20).
(§2) (2) The paraffin-embedded brain tissue was cut Into slices having a thickness of 6 μm or 8 μm, and extended and dried on a slide. The paraffin brain section was steeped for paraffin removal in xylene twice for 10 minutes, 100% ethanol twice for 5 minutes, 90% ethanol for 5 minutes and running water for 10 minutes in that order.
(§3) (3) For pretreatment prior to the staining treatment with a compound of the invention, the sections were steeped for autofluorescence removal with lipofuscin. First, the paraffin-removed sections were dipped in 0.25% KMnO4 solution for 20 minutes. These were washed with PBS, twice for 2 minutes, then dipped in 0.1% K2S2O5/oxalic acid solution for about 5 seconds, and then further washed with PBS, three times for 2 minutes.
(§4) (4) About 150 μl of a 100 μM solution of a compound of the invention dissolved in 50% ethanol was dropwise applied to the section and reacted for 10 minutes. After dipped five times in tap water, the section was entrapped with Fluor Save Reagent (Calbiochem), and analyzed through microscopy with a fluorescence microscope (Nikon, Eclipse 80i). The images were taken with a digital camera (Nikon Dxm 1200F or Photometrics' Cool SNAP ES).
(1) After paraffin removal, the sections were washed in distilled water, twice for 2 minutes. Then, using ImmunoPen, the tissue was marked with a surrounding line; about 150 μl of formic acid was dropwise applied to the section and statically left at room temperature for 5 minutes. The section was washed with tap water for 5 minutes, then dipped in cold PBS-Tween 20 for 2 minutes, and thereafter about 150 μl of 0.05% trypsin solution was dropwise applied to it and reacted at 37° C. for 15 minutes.
(2) In an ice bath, this was washed with cold PBS-Tween 20, twice for 5 minutes, and then 2 drops of blocking serum were applied to it and reacted at 37° C. for 30 minutes. Excess water was removed, and then about 150 μl of a specific antibody to amyloid β protein, 6F/3D (by DAKO, 1/50 dilution) was dropwise applied to it, and reacted at 37° C. for 1 hour.
(3) Further, this was washed with cold PBS-Tween 20, 5 times for 2 minutes, and then 2 drops of an anti-mouse IgG (H+L), goat, biotin-binding solution were applied to it and reacted at 37° C. for 1 hour. Then, this was washed with cold PBS-Tween 20, three times for 2 minutes, and 2 drops of an ABC solution (streptoavidin-biotin-peroxidase composite solution) were applied to it, and left statically as such for 30 minutes. Again this was washed with cold PBS-Tween 20, three times for 2 minutes, and then about 150 μl of a DAB solution (10 mg of DAB was dissolved in 20 ml of 0.05 mol/liter tris-HCl buffer, and just before use, 100 μl of 3% hydrogen peroxide water was added to it) was dropwise applied to it for sufficiently staining it. Then, this was washed with distilled water for 1 minute to stop the reaction, then entrapped and observed through microscopy.

[2] = system: neurofibrillary tangle in the brain section of an Alzheimer disease patient; assay: Staining test on a brain section of an Alzheimer disease patient: neurofibrillary tangle; format: binding, human; conditions: 100 μM solution in 50% ethanol, 10 minutes, paraffin brain section
Source text: as §1, §2, §3
as §4, with “ES). […]” for “ES).”

[3] = Brain Permeability Test Through HPLC; format: in vivo; conditions: mice, 2 minutes after intravenous administration
Description: A compound of the invention was intravenously administered to mice, and tested for its in-vivo brain permeability in the mice.
(1) Slc:ICR mice (by Nippon SLC) (body weight, 30 to 40 g; n=3) were used.
(2) A test compound was dissolved in a mixture of 5% Tween 80-5% ethyl alcohol-5% 1 N HCl-physiological saline water, and injected into the test mouse via its tail vein. Two minutes after the administration, the blood was collected from the test mouse under ether anesthesia via its abdominal aorta using a heparin-steeped syringe, and the brain material was collected from it.
(3) After collected, the blood was centrifuged at 4° C. and 14,000 rpm for 10 minutes, and the supernatant was stored at −80° C. as plasma. After collected, the brain material (including the cerebellum) was stored at −80° C.
(4) 0.3 ml of acetonitrile was added to 0.1 ml of the plasma, then vortexed, and centrifuged at 4° C. and under 10,000 G for 5 minutes. After centrifuged, 0.2 ml of the resulting supernatant was transferred into Mini-Uniprep (Whatman), then 0.2 ml of 20 mM phosphate buffer was added to it and filtered. 0.2 ml of the resulting filtrate was analyzed through HPLC (Shiseido Nanospace SI-2; pump, 3001; UV-VIS detector, 3002; column thermostat, 3004; fluorescence detector, 3013).
(5) 2 ml of methanol was added to the brain, homogenized, and centrifuged at 4° C. and 3000 or 4000 rpm for 10 minutes. After centrifuged, 500 μl of the resulting supernatant was diluted 10-fold with 20 mM phosphate buffer. (i) 2 to 3 ml of acetonitrile, (ii) 2 to 5 ml of methanol and (iii) 4 to 6 ml of ultra-pure water were led through a cartridge for solid-phase extraction (J. T. Baker Speedisk) in that order, and the 10-fold diluted supernatant solution was led through it. Via an empty syringe, air was applied to the cartridge for solid-phase extraction, two or three times to remove water, and then this was eluted with about 500 μl of acetonitrile or methanol, and the eluate was diluted 2-fold with 20 mM phosphate buffer. 0.2 ml of the resulting solution was analyzed through HPLC.
(6) The test compound content in the plasma and in the brain was determined relative to the dose of the compound (% ID (injected dose)/g or ml).

[4] = system: histidine-requiring Salmonella typhimurium TA100 and TA98 strains; assay: Mutagenicity Test (reverse mutation test); format: cell-based; conditions: for Relative Activity in the presence of S9Mix / Relative Activity in the absence of S9Mix: reverse mutation test
Description: In view of their use, it is desirable that the compounds of the invention have no mutagenicity or have little mutagenicity to a level causing no problem. For investigating the gene mutagenesis of the compounds of the invention, herein carried out was a reverse mutation test with histidine-requiring Salmonella typhimurium TA100 and TA98 strains. Two tests were carried out. One is a test for dose determination test; and the other is for mutagenicity.
The test methods and the mutagenicity of the compounds of the invention are mentioned below. In the dose determination test, six doses of 0.160, 0.800, 4.00, 20.0, 100 and 500 μg/plate (common ratio 5) were tried.
As a result of the dose determination test, when the mutagenicity of the test compound was admitted, then the actual test for mutagenicity was carried out, using the dose capable of giving an accurate dose-reaction curve. When no mutagenicity of the test compound was admitted in the dose determination test and when the growth inhibition of the test cells was admitted therein, then the dose to present the growth inhibition was taken as the maximum dose; and when the growth inhibition was not admitted, then a dose of 5000 μg/plate was taken as the maximum dose. With that, the actual test for mutagenicity was carried out on the level of 6 doses (common ratio 2).
First, a test compound was dissolved or suspended in DMSO, then diluted in order to prepare test compound liquids having a varying concentration.
100 μl of a test compound liquid or a negative control (DMSO) solution was put into a sterilized test tube. Then, for the case in the absence of a metabolic activation system (−S9mix), 500 μl of 0.1 mol/liter sodium-phosphate buffer (pH 7.4) was added to it; and for the case in the presence of a metabolic activation system (+S9mix), 500 μl of S9mix was added to it.
Next, 100 μl of the test strain suspension that had been cultivated with shaking at 37° C. for 8 hours was added to it, and preincubated in a shaking thermostat at 37° C. for 20 minutes. After shaken, 2 ml of top agar was added to it, and the contents were mixed.
Next, the mixture was poured onto a minimal glucose agar plate medium (plate) and spread uniformly thereon, then the top agar was solidified, and the plate was transferred into a thermostat and incubated at 37° C. for 48 hours.
Then, the number of the colonies grown through reverse mutation was counted.
For counting it, […]. After area correction and miss-counting correction, the number of the colonies was computed. When the colony analyzer could not be used owing to the deposition of the test compound or the cell growth inhibition, then the number of the colonies was counted with the naked eye.
In case where the number of the colonies through reverse mutation increased two times or more that of the negative control and where the dose dependency or the reproducibility of the increase was admitted, then the tested sample was decided as positive. When the sample was is decided as positive, then the relative activity that indicates the relative comparative value of the intensity of the mutagenicity of the test compound was obtained according to the following formula: Relative Activity={(number of colonies per plate having the concentration)−(number of colonies per negative control plate)}/the value of concentration (mg/plate).

[5] = target: T2, Amyloid β protein 1-40 (Homo sapiens, UniProt P05067); assay: Fluorescence Congo Red Method; format: binding; conditions: 1 h, compound 10 μM, amyloid β protein 5 μM
T2 construct: Amyloid β protein 1-40 (bought from Peptide Laboratory); purchased Peptide Laboratory
Description: Next described is a screening method for the compounds of the invention. Some of the compounds of the invention could not be screened according to a Thioflavin T method, since their fluorescence wavelength overlaps with that of Thioflavin T. For such compounds, the following novel screening method was introduced. (1) Amyloid β protein 1-40 (bought from Peptide Laboratory) was dissolved in a phosphate buffer (pH 7.4) and left at 37° C. for 4 days. (2) 50 μl of Congo red dissolved in the buffer was applied to a 96-well microplate (final concentration, 0.1, 0.3, 1 μM). (3) 100 μl of amyloid β protein was added to it (final concentration 5 μM), and left as such for 30 minutes. (4) 100 μl of a test compound dissolved in the buffer was added to it (final concentration, 10 μM, and left as such for 60 minutes. (5) Using a fluorescence microplate reader (Spectra Max 190 by Molecular Device), the sample was analyzed at the optimum exciting wavelength and the test wavelength that had been previously determined. (6) The fluorescence intensity in the presence of the test compound, amyloid β protein and Congo red is represented by A; that in the presence of the test compound and Congo red is by B; that in the presence of the test compound and amyloid β protein is by C; and that in the presence of only the test compound is by D. The β structure recognition of the test compound is computed according to the following formula: β structure recognition (%) of test compound={(A−B)/(C−D)}×100. (7) It may be said that the test compound having a higher β structure recognition percentage may have higher binding specificity to amyloid β protein.

[6] = Acute Toxicity Test; format: in vivo; conditions: Crj:CD1 male mice, tail vein, observed for 7 days
Description: The compounds of the invention were tested for their acute toxicity through intravenous administration thereof to mice. Four Crj:CD1 male mice formed one test group, and some test groups of those mice were used (the mean body weight of the mice of each group was from 31 to 32 g). A test compound was dissolved in a mixture of 1 N HCl, polyethylene glycol-400 and distilled water, or dissolved in DMSO, and then diluted with distilled water. This was administered to each mouse via its tail vein.

[7] = system: histidine-requiring Salmonella typhimurium TA100 and TA98 strains; conditions: cited from earlier work
[8] = Congo red 0.1 μM, read-out: Binding Percentage of Compound in the presence of 0.1 μM CR
[9] = Congo red 0.3 μM, read-out: Binding Percentage of Compound in the presence of 0.3 μM CR
[10] = Congo red 1 μM, read-out: Binding Percentage of Compound in the presence of 1 μM CR

T2 sequence (P05067 672-711): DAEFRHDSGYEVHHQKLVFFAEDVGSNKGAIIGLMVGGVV
T1 sequence (P05067 672-713 limits assumed): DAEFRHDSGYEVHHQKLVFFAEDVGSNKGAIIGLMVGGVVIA

SMILES	Brain Permeability: Brain [3]	Brain Permeability: Plasma [3]	Relative Activity in the presence of S9Mix [4]	Relative Activity in the absence of S9Mix [4]	activity at 10 µM [5, 8]	activity at 10 µM [5, 9]	activity at 10 µM [5, 10]	Maximum Permissible Dose (mg/kg, intravenous administration) [6]	further results
CN1C=CC(=CC=C2C=CC(=O)C=C2)C=C1 [THK-317, 4-[2-(1-methyl-1H-pyridin-4-ylidene)-ethylidene]-cyclohexa-2,5-dienone]									Binding to (staining of) amyloid β protein in the brain section of an Alzheimer disease patient ([1]; 100 μM solution in 50% ethanol, 10 minutes, paraffin brain section): bound to the amyloid β protein; Specificity to amyloid β ([1]; statement in the description of formulae (II) to (VI)): high specificity to amyloid β; Binding to (staining of) neurofibrillary tangle in the brain section of an Alzheimer disease patient [2]: bound to the amyloid β protein and the neurofibrillary tangle
OCC(CF)Oc1ccc2nc(/C=C/c3cnc(N4CCCCC4)s3)oc2c1 (centres unmarked) [THK-713]	5.9 % ID/g or ml	3.29 % ID/g or ml	minus	minus	58.2%	21.2%	3%	≧10 mg/kg	Relative activity (mutagenicity) ([4]; irrespective of the absence or presence of S9mix): minus
CN1CCN(c2ncc(/C=C/c3nc4ccc(OC(CO)CF)cc4o3)s2)CC1 (centres unmarked) [THK-707, (E)-6-[(1-fluoromethyl-2-hydroxy)ethoxy]-2-[2-[2-(4-methylpiperazin-1-yl)thiazol-5-yl]ethenyl]benzoxazole]	4.4 % ID/g or ml	0.58 % ID/g or ml	minus	264	66.8%	36.4%	29.7%	≧10 mg/kg	Relative activity (mutagenicity) ([4]; in the presence of S9mix): weak
CN(C)c1ccc(-c2cn3cc(I)ccc3n2)cc1 [IMPY]									Relative activity (mutagenicity) ([7]; in the presence of S9mix, literature compounds): extremely high; Relative Activity in the presence of S9Mix ([7]; reverse mutation test, +S9mix, data from PCT/JP03/07183 (WO03/106439)): minus; Relative Activity in the absence of S9Mix ([7]; reverse mutation test, -S9mix, data from PCT/JP03/07183 (WO03/106439)): 3,326,100
CC(=C(C#N)C#N)c1ccc2cc(N(C)CCF)ccc2c1 [FDDNP]									Relative Activity in the absence of S9Mix [7]: 3,564,960; Relative Activity in the presence of S9Mix [7]: minus
